Drawing on ChEMBL document CHEMBL5126588, “Discovery of non-substrate, environmentally sensitive turn-on fluorescent probes for imaging HDAC8 in tumor cells and tissue slices” (Bioorg Med Chem, 2022), this text covers Activity, IC50 and Kd for 4 molecules.

Series [1] deals with T1, Histone deacetylase 8 (Homo sapiens) (UniProt Q9BY41).
T1 sequence (whole entry): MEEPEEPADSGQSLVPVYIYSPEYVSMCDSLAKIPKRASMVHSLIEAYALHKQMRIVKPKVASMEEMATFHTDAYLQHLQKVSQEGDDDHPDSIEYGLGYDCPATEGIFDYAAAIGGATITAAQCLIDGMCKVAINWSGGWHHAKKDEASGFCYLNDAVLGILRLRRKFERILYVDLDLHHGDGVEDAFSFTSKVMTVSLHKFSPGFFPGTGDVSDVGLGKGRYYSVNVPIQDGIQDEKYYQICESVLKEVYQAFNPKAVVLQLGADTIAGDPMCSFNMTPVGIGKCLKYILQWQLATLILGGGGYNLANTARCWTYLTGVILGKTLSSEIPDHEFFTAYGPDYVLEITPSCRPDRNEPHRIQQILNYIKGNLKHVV
Kind of series: Binding affinity to HDAC8 in human SH-SY5Y cells assessed as increase in fluorescence intensity at 10 uM after 30 mins by confocal fluorescence microscopic analysis. The format is cell-based.

The test system of series [2] is MDA-MB-231. The series is described as follows: Antiproliferative activity against human MDA-MB-231 cells by MTT assay. Type of series: functional, cell-based. A general note: Tetrazolium dyes change colour on reduction, which living cells bring about.
The target of series [3] is Histone deacetylase 1 (Homo sapiens, UniProt Q13547). The series is described as follows: Binding affinity to HDAC1 (unknown origin) by biolayer interferometry assay.
Chain of Histone deacetylase 1 (Q13547 whole entry): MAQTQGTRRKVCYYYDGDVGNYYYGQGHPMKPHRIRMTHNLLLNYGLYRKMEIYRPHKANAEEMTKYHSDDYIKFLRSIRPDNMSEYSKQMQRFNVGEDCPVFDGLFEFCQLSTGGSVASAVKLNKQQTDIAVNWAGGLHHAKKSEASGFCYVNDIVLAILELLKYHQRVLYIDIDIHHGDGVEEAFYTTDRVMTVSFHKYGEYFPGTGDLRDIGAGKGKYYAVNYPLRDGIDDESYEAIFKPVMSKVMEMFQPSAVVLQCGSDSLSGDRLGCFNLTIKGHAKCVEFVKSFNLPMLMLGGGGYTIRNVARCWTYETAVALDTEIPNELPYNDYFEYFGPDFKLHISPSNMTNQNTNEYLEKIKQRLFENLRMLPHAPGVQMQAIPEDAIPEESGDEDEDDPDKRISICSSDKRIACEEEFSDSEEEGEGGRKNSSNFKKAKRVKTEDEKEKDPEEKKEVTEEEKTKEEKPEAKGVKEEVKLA
Series [4] relates to SH-SY5Y. Kind of series: Antiproliferative activity against human SH-SY5Y cells within 20 uM by MTT assay. Type of series: toxicity, cell-based.
Series [5] deals with MDA-MB-231. The series is described as follows: Antiproliferative activity against human MDA-MB-231 cells within 20 uM by MTT assay. As to conditions: mda-mb-231, 20 µM. The format is toxicity, cell-based.
Series [6] has as its target T2, Protein deacetylase HDAC6 (Homo sapiens, UniProt Q9UBN7).
T2 sequence (Q9UBN7 whole entry): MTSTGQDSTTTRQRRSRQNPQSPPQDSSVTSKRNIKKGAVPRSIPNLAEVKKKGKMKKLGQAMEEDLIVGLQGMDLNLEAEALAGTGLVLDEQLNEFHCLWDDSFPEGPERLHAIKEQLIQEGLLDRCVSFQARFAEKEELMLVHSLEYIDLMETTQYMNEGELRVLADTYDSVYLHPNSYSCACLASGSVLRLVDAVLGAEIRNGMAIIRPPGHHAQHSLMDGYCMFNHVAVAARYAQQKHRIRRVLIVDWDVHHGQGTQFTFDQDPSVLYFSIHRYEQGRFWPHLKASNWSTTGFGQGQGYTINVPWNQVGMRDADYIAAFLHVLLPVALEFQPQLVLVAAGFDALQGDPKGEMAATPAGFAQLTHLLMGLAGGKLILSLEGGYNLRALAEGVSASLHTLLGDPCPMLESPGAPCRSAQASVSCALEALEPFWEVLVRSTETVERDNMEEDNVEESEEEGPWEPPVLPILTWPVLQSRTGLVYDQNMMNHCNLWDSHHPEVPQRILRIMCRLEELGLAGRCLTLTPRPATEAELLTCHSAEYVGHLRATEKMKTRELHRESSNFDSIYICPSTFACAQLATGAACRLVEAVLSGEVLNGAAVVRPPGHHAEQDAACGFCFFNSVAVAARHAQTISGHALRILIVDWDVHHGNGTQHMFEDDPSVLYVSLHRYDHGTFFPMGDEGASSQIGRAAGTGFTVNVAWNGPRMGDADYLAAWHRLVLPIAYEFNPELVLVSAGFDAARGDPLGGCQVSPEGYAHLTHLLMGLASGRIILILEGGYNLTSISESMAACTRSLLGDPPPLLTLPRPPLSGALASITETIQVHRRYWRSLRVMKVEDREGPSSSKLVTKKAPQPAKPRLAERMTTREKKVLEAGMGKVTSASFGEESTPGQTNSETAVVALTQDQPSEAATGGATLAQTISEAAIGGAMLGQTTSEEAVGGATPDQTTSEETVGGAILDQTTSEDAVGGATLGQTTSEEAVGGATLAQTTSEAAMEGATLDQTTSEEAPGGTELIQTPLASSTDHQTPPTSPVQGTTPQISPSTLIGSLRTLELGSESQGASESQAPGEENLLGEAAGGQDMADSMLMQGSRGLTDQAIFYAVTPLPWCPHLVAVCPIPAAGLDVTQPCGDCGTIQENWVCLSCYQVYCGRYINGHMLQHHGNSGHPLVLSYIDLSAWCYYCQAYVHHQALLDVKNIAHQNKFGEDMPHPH
The series is described as follows: Binding affinity to HDAC6 (unknown origin) by biolayer interferometry assay. On the technique in general: In BLI a coated tip is dipped into the sample, and binding shifts an interference pattern.

Series [7] deals with T1, Histone deacetylase 8 (Homo sapiens). The series is described as follows: Binding affinity to HDAC8 in human SH-SY5Y cells xenografted with BALB/c mouse assessed as increase in fluorescence intensity in tumor tissue at 20 uM after 30 mins by fluorescence imaging analysis.
For series [8] the target is unchanged. The series is described as follows: Binding affinity to HDAC8 in human SH-SY5Y cells assessed as increase in fluorescence intensity at 5 to 10 uM incubated for 30 mins by flow cytometry analysis. The format is cell-based. As to conditions: dose 5-10 µM. (Flow cytometry measures light scatter and fluorescence of single cells or particles in a stream.)
Series [9] has as its system SH-SY5Y. Kind of series: Antiproliferative activity against human SH-SY5Y cells by MTT assay. Type of series: functional, cell-based.
Series [10] concerns the target T3, Histone deacetylase 8 (Homo sapiens, UniProt Q9BY41).
T3 sequence (Q9BY41 whole entry): T1 sequence (whole entry)
Kind of series: Binding affinity to HDAC8 (unknown origin) by biolayer interferometry assay.

Active and inactive are the calls of the source. The rule behind the calls is not given here.

As usually defined, the IC50 is the midpoint of a concentration-inhibition curve. High values mean lower potency, low ones higher potency. The term Kd denotes a measure of binding affinity in units of concentration. Higher therefore signals a looser complex. In the case of `COc1ccc(Cn2ccc3ccc(C(=O)NO)cc32)cc1C(=O)NCCCCNc1ccc(S(=O)(=O)N(C)C)c2nonc12`, the result in series [1], in series [7] and in series [8] was Active. The IC50 turned out to be 33 µM in series [2] and 8.48 µM in series [9]. Further, the dissociation constant (Kd) in series [3] worked out at 79.4 µM; in series [6], 137 µM; in [10], 8.89 µM. Also, the Activity result in [4] and in [5] was “Non-Toxic” throughout.
Take `COc1ccc(Cn2ccc3ccc(C(=O)NO)cc32)cc1C(=O)NCCNc1ccc(S(=O)(=O)N(C)C)c2nonc12`: the IC50 in series [2] worked out at 16.1 µM; in [9], 9.93 µM. Besides, the Kd was determined as 16.2 µM in series [3], 29.4 µM in series [6] and 5.37 µM in series [10].
Turning to `COc1ccc(Cn2ccc3ccc(C(=O)NO)cc32)cc1`, the IC50 is 16.1 µM in series [2] and 2.38 µM in series [9].
Regarding `COc1ccc(Cn2ccc3ccc(C(=O)NO)cc32)cc1C(=O)NCCCNc1ccc(S(=O)(=O)N(C)C)c2nonc12`, the IC50 in series [2] amounted to 18 µM; in series [9], 8.56 µM. Besides, the values for the Kd in series [3], in series [6] and in series [10] were 20.6 µM, 20.1 µM and 3.57 µM, respectively.
